{
  "source": "paper PMC3438226",
  "about": "(Bioorganic & medicinal chemistry, 2012)",
  "key": {"N. meningitidis MTAN [1]": {"target": "T1, N. meningitidis MTAN (Neisseria meningitidis, UniProt Q9K054)", "assay": "Inhibition of hydrolysis of MTA catalysed by N. meningitidis MTAN", "format": "biochemical"}, "human MTAP": {"target": "T2, human MTAP (Homo sapiens, UniProt Q13126)", "T2 sequence (Q13126 1-283)": "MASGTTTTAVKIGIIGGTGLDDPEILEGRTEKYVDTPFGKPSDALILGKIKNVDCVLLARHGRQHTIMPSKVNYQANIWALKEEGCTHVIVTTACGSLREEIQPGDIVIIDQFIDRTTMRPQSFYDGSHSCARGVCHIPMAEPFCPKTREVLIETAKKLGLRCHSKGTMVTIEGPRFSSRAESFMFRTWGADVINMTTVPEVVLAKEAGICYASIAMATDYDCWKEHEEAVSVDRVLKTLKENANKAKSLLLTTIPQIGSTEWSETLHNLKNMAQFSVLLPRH", "assay": "Inhibition of phosphorolysis of MTA catalysed by human MTAP", "format": "biochemical"}, "E. coli MTAN [2]": {"target": "T3, E. coli MTAN (Escherichia coli, UniProt P0AF12)", "T3 sequence (P0AF12 whole entry)": "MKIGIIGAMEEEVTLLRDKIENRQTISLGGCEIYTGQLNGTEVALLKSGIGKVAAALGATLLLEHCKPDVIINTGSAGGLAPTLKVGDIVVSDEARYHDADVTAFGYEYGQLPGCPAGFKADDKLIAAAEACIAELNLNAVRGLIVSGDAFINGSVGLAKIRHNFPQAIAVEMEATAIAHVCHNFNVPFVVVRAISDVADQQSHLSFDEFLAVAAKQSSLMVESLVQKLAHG", "format": "biochemical"}, "E. coli MTAN [3]": {"target": "T3, E. coli MTAN", "settings": "read-out: Ki* E. coli MTAN; Ki* value; cited from earlier work"}, "N. meningitidis MTAN [4]": {"target": "T1, N. meningitidis MTAN", "settings": "read-out: Ki* N. men. MTAN; Ki* value; cited from earlier work"}},
  "data": [
    {"compound": "CSCC(CO)CNCc1c[nH]c2c(N)ncnc12", "note": "(racemic) [(±)-25]", "values": [
      {"measurement": "difference in binding affinity compared with 4", "setting": "N. meningitidis MTAN [1]; N. meningitidis MTAN", "value": 9, "unit": "fold"},
      {"measurement": "weaker binding affinity compared with 4", "setting": "human MTAP", "value": "approximately 110 fold"},
      {"measurement": "times weaker inhibitor than 17 I", "setting": "E. coli MTAN [2]; E. coli MTAN", "value": 1.5, "unit": "fold"},
      {"measurement": "weaker binding affinity compared with 4", "setting": "E. coli MTAN [2]; E. coli MTAN", "value": "~180", "unit": "fold"}
    ]},
    {"compound": "CSC[C@@H](CN(C)Cc1c[nH]c2c(N)ncnc12)[C@@H](O)CO", "note": "(racemic) [(±)-68]", "values": [
      {"measurement": "loss in activity relative to (±)-65", "setting": "N. meningitidis MTAN [1]; N. meningitidis MTAN, N-methylation", "value": "~12", "unit": "fold"},
      {"measurement": "improvement of inhibition relative to (±)-65", "setting": "human MTAP; N-methylation", "value": "about 3 fold"},
      {"measurement": "loss of binding affinity relative to (±)-65", "setting": "E. coli MTAN [2]; E. coli MTAN, N-methylation", "value": 250, "unit": "fold"}
    ]},
    {"compound": "CSC[C@H](O)[C@@H](CO)CN(C)Cc1c[nH]c2c(N)ncnc12", "note": "(racemic) [(±)-72]", "values": [
      {"measurement": "reduction in binding affinity relative to (±)-68", "setting": "N. meningitidis MTAN [1]; N. meningitidis MTAN", "value": "approximately 2 fold"},
      {"measurement": "reduction in binding affinity relative to (±)-68", "setting": "human MTAP", "value": "~9", "unit": "fold"},
      {"measurement": "gain in binding affinity relative to (±)-68", "setting": "E. coli MTAN [2]; E. coli MTAN", "value": "~6", "unit": "fold"}
    ]},
    {"compound": "CSC[C@H](O)[C@@H](O)CN(C)Cc1c[nH]c2c(N)ncnc12", "note": "(racemic) [(±)-78]", "values": [
      {"measurement": "increase in potency relative to (±)-72", "setting": "N. meningitidis MTAN [1]; bacterial MTANs (N. meningitidis)", "value": "approximately 2 fold"},
      {"measurement": "loss in activity relative to (±)-72", "setting": "human MTAP", "value": "~4", "unit": "fold"},
      {"measurement": "increase in potency relative to (±)-72", "setting": "E. coli MTAN [2]; bacterial MTANs (E. coli)", "value": "approximately 2 fold"}
    ]},
    {"compound": "CSC[C@@H](O)[C@@H](CO)NCc1c[nH]c2c(N)ncnc12", "note": "[Compound 33]", "values": [
      {"measurement": "times weaker inhibitor than 17 I", "setting": "E. coli MTAN [2]; E. coli MTAN", "value": "about 4 fold"}
    ]},
    {"compound": "CSC[C@@H](O)CNCc1c[nH]c2c(N)ncnc12", "note": "[Compound 54]", "values": [
      {"measurement": "drop in binding affinity relative to (±)-25", "setting": "E. coli MTAN [2]; E. coli MTAN", "value": "~110", "unit": "fold"}
    ]},
    {"compound": "CSC[C@H](CO)N[C@H](CO)c1c[nH]c2c(N)ncnc12", "note": "[Compound 79]", "values": [
      {"measurement": "loss of activity relative to 3", "setting": "E. coli MTAN [2]; E. coli MTAN, cleavage of 2,3 C-C bond of 3", "value": "21,500 fold"}
    ]},
    {"compound": "(1S)-1-(9-deazaadenin-9-yl)-1,4-dideoxy-1,4-imino-5-methylthio-D-ribitol [Compound 3]", "values": [
      {"measurement": "Ki", "setting": "E. coli MTAN [3]", "value": "0.08 ± 0.02", "unit": "nM"},
      {"measurement": "Ki", "setting": "N. meningitidis MTAN [4]", "value": 0.36, "unit": "nM"}
    ]}
  ]
}
